Data: ChEMBL document CHEMBL1201862, “PubChem BioAssay data set” (2004)
Calls of active or inactive are those of the source.

How the values were obtained:
BJ [1] = experiment: BJ-TERT fibroblast viability loss – cell-based, RAS-independent, luminescence, dose response (AID 1933); format: functional; settings: Homo sapiens
BJ [2] = experiment: cells; format: functional, cell-based; settings: Homo sapiens
BJ [3] = experiment: BJ-TERT-LT-ST fibroblast viability loss – cell-based, RAS-independent, luminescence, dose response (AID 1935); format: functional; settings: Homo sapiens;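 also: BJ fibroblasts immortalized with TERT plus LT and ST oncogenes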
[4] = DRD fibroblast viability loss – cell-based, non-viral oncogenic, luminescence, dose response (AID 1934); format: functional; settings: Homo sapiens
Bcl-2-related protein A1 = target: T1, Bcl-2-related protein A1 (Mus musculus, UniProt Q07440); format: functional;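 also: confirmatory dose–response counterscreen on Bfl-1, used to check hits from a UBC13 polyubiquitin inhibitor campaign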
T1 sequence (Q07440 whole entry): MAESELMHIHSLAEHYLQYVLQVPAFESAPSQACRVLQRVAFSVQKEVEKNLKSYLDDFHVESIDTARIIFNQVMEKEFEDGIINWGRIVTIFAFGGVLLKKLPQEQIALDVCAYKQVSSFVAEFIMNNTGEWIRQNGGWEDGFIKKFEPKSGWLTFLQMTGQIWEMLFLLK

[5] = target: T2, Ubiquitin-conjugating enzyme E2 N (Homo sapiens, UniProt P61088); format: functional
T2 sequence (P61088 whole entry): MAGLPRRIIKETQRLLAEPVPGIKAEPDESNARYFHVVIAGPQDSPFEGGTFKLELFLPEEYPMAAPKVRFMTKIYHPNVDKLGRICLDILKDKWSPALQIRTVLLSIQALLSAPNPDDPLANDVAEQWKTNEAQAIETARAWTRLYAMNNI

[6] = target: T2, Ubiquitin-conjugating enzyme E2 N; format: functional; remark: listed apart in the source
[7] = target: T3, Type-1 angiotensin II receptor (Homo sapiens, UniProt P30556); experiment: agonist activity at AGTR1 – cell-based, uHTS hits, selectivity assay for APJ receptor agonist project, dose response (AID 488865); format: functional;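 also: beta-arrestin recruitment to AT1 measured by enzyme fragment complementation luminescence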
T3 sequence (P30556 whole entry): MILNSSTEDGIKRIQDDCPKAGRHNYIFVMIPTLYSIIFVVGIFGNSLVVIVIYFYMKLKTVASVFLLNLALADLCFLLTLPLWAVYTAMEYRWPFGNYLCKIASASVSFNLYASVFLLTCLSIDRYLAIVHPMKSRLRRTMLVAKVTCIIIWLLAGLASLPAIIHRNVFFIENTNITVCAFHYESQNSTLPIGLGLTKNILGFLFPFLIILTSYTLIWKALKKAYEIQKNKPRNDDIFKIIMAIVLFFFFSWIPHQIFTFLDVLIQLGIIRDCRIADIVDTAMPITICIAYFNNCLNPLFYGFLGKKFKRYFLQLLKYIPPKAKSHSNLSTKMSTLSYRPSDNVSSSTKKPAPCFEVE

[8] = target: T4, Heat shock factor protein 1 (Mus musculus, UniProt P38532); experiment: decrease of HSF1-responsive luciferase luminescence – cell-based, NIH3T3, dose retest, confirmation (AID 2382); format: functional;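 also: NIH3T3 fibroblasts with HSF1-driven luciferase reporter stressed by proteasome inhibitor MG132; luminescence from HSF1-driven luciferase expression after 8 hours of MG132 stress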
T4 sequence (P38532 whole entry): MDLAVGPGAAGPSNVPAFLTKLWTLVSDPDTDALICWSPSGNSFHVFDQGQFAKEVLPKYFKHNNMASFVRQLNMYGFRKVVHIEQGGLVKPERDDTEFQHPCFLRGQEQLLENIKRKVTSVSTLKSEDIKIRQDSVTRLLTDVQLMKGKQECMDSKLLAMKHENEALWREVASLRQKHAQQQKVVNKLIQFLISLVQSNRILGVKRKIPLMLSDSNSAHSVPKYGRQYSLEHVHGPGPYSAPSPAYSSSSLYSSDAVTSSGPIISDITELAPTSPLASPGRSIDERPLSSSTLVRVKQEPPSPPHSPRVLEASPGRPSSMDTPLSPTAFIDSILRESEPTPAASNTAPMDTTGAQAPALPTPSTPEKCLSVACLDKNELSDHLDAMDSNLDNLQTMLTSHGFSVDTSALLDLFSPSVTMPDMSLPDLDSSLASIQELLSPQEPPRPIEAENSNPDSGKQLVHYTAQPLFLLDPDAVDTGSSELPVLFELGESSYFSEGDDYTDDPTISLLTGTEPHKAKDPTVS

[9] = viability of PTEN-deleted HCT116 cells – cell-based, HCT116 PTEN knockout, dose response (AID 1047); format: functional;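 also: HCT116 colon tumor cells with PTEN knocked out; cells exposed to compound for 60 hours before readout; potency for loss of cell viability measured by luminescence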
[10] = viability of HCT116 lacking mutant beta-catenin – cell-based, human colon tumor, dose response (AID 1045); format: functional;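 also: HCT116 colon tumor cells with beta catenin knocked out; cells exposed to compound for 60 hours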
[11] = target: Glutathione S-transferase omega-1 (Homo sapiens, UniProt P78417); experiment: IC50 of human GSTO1 inhibition by gel ABPP – biochemical, SE-Rh probe, in-gel fluorescence, powder samples, late-stage follow-up (AID 463081); format: functional
BJ [12] = experiment: growth inhibition of engineered Ras-driven BJ cells – cell-based, alamar blue fluorescence, cherrypicked samples, dose response (AID 2631); format: functional; settings: Homo sapiens;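 also: confirmatory dose-response assay in RAS-dependent BJ fibroblasts engineered with TERT, LT and ST, with cytotoxicity read by fluorescence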
Protein RecA = target: T5, Protein RecA (Mycobacterium tuberculosis, UniProt P9WHJ3); experiment: Fluorescence Cell-Free Homogeneous Dose Retest to Identify Inhibitors of RecA-Intein Splicing Activity. [Related pubchem assays (depositor defined):AID2097, AID2223, AID489010, AID492950]; format: functional
T5 sequence (P9WHJ3 whole entry): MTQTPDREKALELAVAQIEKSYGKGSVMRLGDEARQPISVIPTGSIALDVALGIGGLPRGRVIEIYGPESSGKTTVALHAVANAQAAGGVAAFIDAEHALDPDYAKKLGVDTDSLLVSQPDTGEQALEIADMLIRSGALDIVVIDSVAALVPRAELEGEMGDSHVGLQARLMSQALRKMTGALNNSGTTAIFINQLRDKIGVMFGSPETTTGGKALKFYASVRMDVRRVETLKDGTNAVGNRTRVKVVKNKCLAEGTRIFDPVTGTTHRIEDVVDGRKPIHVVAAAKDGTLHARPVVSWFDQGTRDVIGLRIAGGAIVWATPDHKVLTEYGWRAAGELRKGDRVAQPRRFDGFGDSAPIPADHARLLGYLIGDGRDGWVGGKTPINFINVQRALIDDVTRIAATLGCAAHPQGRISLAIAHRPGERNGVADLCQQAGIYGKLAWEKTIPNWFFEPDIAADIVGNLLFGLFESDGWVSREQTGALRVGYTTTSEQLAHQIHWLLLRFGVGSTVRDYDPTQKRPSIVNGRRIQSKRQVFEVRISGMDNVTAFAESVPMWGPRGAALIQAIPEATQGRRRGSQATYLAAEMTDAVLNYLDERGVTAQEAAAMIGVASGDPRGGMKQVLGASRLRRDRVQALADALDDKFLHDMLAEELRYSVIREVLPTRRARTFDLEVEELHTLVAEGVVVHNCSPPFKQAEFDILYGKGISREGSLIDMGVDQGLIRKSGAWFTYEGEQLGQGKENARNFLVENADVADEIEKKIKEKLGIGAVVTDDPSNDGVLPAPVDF

Paired box protein Pax-8 = Paired box protein Pax-8 (Homo sapiens, UniProt Q06710); experiment: PAX8 transcriptional activity inhibition in RMG-I – RMG-I cells, luciferase, cherry-pick, dose response (AID 687027); format: functional, cell-based;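 also: luciferase reporter driven by Pax8 target thyroperoxidase promoter measured by SteadyGlo luminescence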
[13] = general cell-killing toxicity readout – plate reader, dry powder samples, cytotoxicity control for PAX8 inhibitor project, dose response (AID 743021); format: functional, cell-based
[14] = target: T6, Microphthalmia-associated transcription factor (Homo sapiens, UniProt O75030); experiment: MITF Measured in Cell-Based System Using Plate Reader - 2084-01_Inhibitor_DoseNoFile_CherryPick_Activity_Set2. [Related pubchem assays (depositor defined):AID488944]; format: functional
T6 sequence (O75030 whole entry): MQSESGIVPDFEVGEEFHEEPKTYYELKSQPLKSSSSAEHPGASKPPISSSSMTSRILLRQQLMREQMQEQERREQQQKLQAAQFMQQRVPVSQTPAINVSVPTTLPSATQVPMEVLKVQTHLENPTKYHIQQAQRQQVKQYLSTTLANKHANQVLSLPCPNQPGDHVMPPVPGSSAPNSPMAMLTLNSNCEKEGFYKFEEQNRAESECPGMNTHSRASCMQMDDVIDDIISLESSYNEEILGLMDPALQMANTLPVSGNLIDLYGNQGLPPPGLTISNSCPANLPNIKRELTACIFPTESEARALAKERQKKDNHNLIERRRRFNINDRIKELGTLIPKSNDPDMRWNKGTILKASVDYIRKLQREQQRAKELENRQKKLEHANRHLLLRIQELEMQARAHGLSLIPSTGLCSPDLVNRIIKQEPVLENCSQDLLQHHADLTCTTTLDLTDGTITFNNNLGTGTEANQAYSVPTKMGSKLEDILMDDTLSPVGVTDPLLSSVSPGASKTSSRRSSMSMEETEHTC

[15] = target: T6, Microphthalmia-associated transcription factor; experiment: reducers of TRPM1 reporter luminescence, concentration series – cell-based, SK-MEL-5, cherry-picked, set 4, MITF inhibitor project, dose response (AID 493102); format: functional
[16] = target: T6, Microphthalmia-associated transcription factor; experiment: reducers of TRPM1 reporter luminescence, concentration series – cell-based, SK-MEL-5, cherry-picked, set 3, MITF inhibitor project, dose response (AID 493073); format: functional;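 also: SK-MEL-5 melanoma cells with luciferase driven by the MITF target TRPM1 promoter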
[17] = Luminescent dose response cell-based high throughput screening assay for inhibitors of the Janus kinase 2 mutant JAK2V617F. [Related pubchem assays: 1446 (Primary screen.), 1521 (Confirmation assay.), 1486 (Counter screen.)]; format: functional
[18] = Intein inhibitors as potential Tuberculosis drugs, a cytotoxicity screen. [Related pubchem assays (depositor defined):AID2221, AID2223, AID434968, AID435010, AID449749, AID449750, AID489010]; format: functional
[19] = HEK-293T cell viability reduction – luminescence, B-cell screen hits, cytotoxicity control for BCR NF-kB inhibitor project, dose response (AID 489021); format: functional, cell-based;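 also: HEK-293T cells carrying an NF-kB luciferase reporter; cells exposed to compound for about 14 hours before viability readout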
[20] = target: T7, Replicative DNA helicase DnaB (Mycobacterium tuberculosis, UniProt P9WMR3); experiment: DnaB intein splicing inhibitors, dose response, biochemical, cell-free fluorescence (AID 449749); format: functional
T7 sequence (P9WMR3 whole entry): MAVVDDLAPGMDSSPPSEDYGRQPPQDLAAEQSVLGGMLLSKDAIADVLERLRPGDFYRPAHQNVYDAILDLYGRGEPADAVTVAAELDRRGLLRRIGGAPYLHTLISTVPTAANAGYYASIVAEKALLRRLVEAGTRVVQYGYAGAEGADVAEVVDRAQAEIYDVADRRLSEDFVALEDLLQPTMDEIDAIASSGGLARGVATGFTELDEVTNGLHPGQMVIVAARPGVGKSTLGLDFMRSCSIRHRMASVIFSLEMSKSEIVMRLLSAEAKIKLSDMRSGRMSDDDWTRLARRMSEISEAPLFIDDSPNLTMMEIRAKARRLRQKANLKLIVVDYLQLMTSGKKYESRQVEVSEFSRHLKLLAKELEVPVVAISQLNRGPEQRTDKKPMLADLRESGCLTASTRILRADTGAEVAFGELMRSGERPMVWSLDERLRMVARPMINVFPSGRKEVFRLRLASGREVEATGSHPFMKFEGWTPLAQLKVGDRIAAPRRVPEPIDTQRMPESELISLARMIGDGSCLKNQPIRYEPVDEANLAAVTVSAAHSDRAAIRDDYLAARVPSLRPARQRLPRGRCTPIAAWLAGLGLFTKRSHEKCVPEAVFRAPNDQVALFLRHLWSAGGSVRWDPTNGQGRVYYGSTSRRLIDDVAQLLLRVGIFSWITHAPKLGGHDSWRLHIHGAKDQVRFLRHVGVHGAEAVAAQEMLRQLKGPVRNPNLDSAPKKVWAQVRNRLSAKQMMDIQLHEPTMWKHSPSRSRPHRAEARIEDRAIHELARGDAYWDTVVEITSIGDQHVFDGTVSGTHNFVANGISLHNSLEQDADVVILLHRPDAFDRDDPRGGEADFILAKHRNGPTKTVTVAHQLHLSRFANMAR

[21] = target: Benomyl/methotrexate resistance protein (Candida albicans, UniProt P28873); experiment: Candida albicans Mdr1 pump inhibition curves – singleplex, Cherry Pick1 hits, dose response (AID 588608); format: functional
Vero = experiment: cells; format: functional; settings: Chlorocebus sabaeus
[22] = target: Sphingosine 1-phosphate receptor 4 (Homo sapiens, UniProt O95977); experiment: potency of S1P4 activators – cell-based, fluorescence, synthesized compounds, late-stage follow-up (AID 463107); format: functional
Sequence of Sphingosine 1-phosphate receptor 4 (O95977 whole entry): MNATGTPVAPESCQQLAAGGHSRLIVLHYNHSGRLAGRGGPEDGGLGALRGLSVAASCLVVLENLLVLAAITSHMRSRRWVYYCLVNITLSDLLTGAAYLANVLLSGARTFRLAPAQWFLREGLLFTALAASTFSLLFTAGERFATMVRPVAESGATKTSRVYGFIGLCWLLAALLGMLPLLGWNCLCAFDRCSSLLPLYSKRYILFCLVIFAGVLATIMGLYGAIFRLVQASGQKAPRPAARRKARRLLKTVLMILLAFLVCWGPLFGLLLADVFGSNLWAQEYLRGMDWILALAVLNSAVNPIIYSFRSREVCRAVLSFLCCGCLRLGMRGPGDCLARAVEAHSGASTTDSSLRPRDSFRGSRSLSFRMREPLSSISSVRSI

Sequence of Paired box protein Pax-8 (Q06710 whole entry): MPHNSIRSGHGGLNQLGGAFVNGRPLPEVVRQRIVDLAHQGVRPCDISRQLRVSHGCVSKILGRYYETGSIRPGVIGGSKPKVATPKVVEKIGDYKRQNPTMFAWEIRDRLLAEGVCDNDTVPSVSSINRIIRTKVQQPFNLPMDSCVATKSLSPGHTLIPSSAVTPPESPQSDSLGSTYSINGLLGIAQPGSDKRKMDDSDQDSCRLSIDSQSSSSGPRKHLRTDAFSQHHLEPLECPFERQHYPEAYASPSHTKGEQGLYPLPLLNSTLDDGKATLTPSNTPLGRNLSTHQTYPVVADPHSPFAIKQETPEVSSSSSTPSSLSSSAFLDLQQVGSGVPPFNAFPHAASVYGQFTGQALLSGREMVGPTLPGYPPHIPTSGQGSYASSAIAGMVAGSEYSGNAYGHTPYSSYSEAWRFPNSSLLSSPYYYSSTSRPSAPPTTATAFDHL
Sequence of Glutathione S-transferase omega-1 (P78417 whole entry): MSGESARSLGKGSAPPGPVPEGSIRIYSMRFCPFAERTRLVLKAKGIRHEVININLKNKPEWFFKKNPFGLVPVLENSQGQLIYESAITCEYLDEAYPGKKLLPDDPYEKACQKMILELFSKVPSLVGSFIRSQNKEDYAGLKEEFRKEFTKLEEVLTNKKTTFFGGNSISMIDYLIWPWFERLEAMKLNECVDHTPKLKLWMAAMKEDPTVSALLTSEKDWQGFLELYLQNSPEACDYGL
Sequence of Benomyl/methotrexate resistance protein (P28873 whole entry): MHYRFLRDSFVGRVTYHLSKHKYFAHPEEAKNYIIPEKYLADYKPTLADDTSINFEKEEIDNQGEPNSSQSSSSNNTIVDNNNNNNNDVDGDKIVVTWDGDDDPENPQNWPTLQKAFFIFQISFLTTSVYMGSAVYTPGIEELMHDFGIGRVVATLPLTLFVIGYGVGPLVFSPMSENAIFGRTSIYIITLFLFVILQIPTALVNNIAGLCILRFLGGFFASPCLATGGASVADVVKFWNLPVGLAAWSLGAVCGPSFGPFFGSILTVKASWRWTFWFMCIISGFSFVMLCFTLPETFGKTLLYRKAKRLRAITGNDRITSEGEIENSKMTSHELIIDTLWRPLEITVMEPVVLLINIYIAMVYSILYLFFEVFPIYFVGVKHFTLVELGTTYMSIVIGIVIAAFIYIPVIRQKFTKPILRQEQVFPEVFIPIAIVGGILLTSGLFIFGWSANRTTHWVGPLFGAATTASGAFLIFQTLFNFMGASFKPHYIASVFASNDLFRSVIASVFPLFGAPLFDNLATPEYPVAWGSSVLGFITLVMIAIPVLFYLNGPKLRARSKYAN

For `Cc1cc(C)c2sc(N(CCCN(C)C)C(=O)c3ccc(S(=O)(=O)N4CCc5ccccc5C4)cc3)nc2c1`, which EC50 (BJ [1]) is on record?
Its EC50 is 1570 nM (active).

And the EC50 (BJ [2])?
Its EC50 is 9560 nM (active).

What about the EC50 (BJ [3]) of the same molecule?
Its EC50 is 2540 nM (inconclusive).

And the EC50 [4]?
Its EC50 is 3680 nM (active).

What about the IC50 (Bcl-2-related protein A1) of the same molecule?
Its IC50 is > 20000 nM (inactive).

And the IC50 [5]?
The IC50 was 10000 nM (active).

And the IC50 [6]?
The IC50 was 4640 nM (active).

What about the EC50 [7] of the same molecule?
The EC50 was > 100000 nM (inactive).

Which results are given for `COc1ccc(C(C(=O)NC2CCCCC2)N(C(=O)CCl)c2cccc(Cl)c2)cc1` (stereo unspecified)?
EC50 (BJ [1]): 176 nM (inconclusive); EC50 [8]: 691 nM (active); EC50 (BJ [2]): 987 nM (inconclusive); EC50 [9]: 1360 nM (active); EC50 [10]: 1090 nM (active); EC50 (BJ [3]): 4570 nM (active); EC50 [4]: 518 nM (active); IC50 [11]: 32 nM (active); EC50 (BJ [12]): 122 nM (active); EC50 (Protein RecA): 202 nM (active); AC50 (Paired box protein Pax-8): < 500 nM (active); AC50 [13]: 1020 nM (active)

What does the source list for `CCCCN=c1nc(S)n(-c2ccccc2)c(C)c1C(C)=O`?
AC50 [14]: > 350000 nM (inactive); AC50 [15]: > 350000 nM (inactive); AC50 [16]: > 350000 nM (inactive)

Which results are given for `COc1ccc2nc(C)cc(Sc3nc4ccccc4s3)c2c1`?
IC50 [17]: 1910 nM (active); CC50 [18]: 26400 nM (active); IC50 [19]: > 80000 nM (inactive); AC50 [20]: 2870 nM (active); EC50 [21]: 479 nM (active); EC50 (Protein RecA): 2890 nM (active); CC50 (Vero): 14300 nM (active)

Which EC50 [22] does the source give for `Cc1ccc(OCCc2ccc(Cl)cc2Cl)c([N+](=O)[O-])n1` here?
The EC50 was 2100 nM (active).
